Test results taken from patent US20020168426A1, “Composition comprising extracts of flos lonicerae, fructus forsythiae and radix scutellariae, uses and preparation thereof” (priority 2000, published 2002).
Structures can show the parent of a compound that is named as a salt.

Columns and labels:
Influenza A = experiment: Inhibitory effect for virus, Cytopathic Effect (CPE) method, monolayer Holn cells; type: cell-based; parameters: key: “−”: Virus proliferation was inhibited and no pathologic change was found in the cells.; “+”: The cell had pathologic change
ADV3 = experiment: as above; type: cell-based; parameters: key: “−”: Virus proliferation was inhibited and no pathologic change was found in the cells.; “+”: The cell had pathologic change
RSV [1] = experiment: as above; type: cell-based; parameters: key: “−”: Virus proliferation was inhibited and no pathologic change was found in the cells.; “+”: The cell had pathologic change
HSV-II = experiment: as above; type: cell-based; parameters: key: “−”: Virus proliferation was inhibited and no pathologic change was found in the cells.; “+”: The cell had pathologic change
[2] = system: parainfluenza virus I (HVJ); experiment: Anti-virus test: inhibition of virus-induced cytopathy in Hep-2 cells; type: cell-based; details: 125 μg/ml
[3] = system: Virus Pneumonia induced by influenza; experiment: Anti-virus test in vivo: Virus Pneumonia induced by influenza; parameters: species or system Mice; details: dosage 0.07 g/kg
Source text: B. Anti-virus test in vivo

herpes I virus (HSV-I) = experiment: Anti-virus test: inhibition of virus-induced cytopathy in Hep-2 cells; type: cell-based; details: 125 μg/ml
Influenza virus A3 = experiment: as above; type: cell-based; details: 125 μg/ml
RSV [4] = experiment: as above; type: cell-based; details: 125 μg/ml
[5] = system: ileum contraction induced by histamine; experiment: Anti-anaphylaxis test: histamine-induced contraction of isolated ileum; parameters: species or system guinea pig
Method: A three-color guinea pig was used in the following experiment. The extracts of Flos Lonicerae, Fructus Forsythiae and Radix Scutellariae, both with supercritical fluid extraction and with subboiling aqueous extraction, were used as test drugs. Ebalin, an antihistamine, was used as the control drug.
The ileum of a guinea pig was taken and hung on a Magnus' bath. The basic contraction frequency of the ileum was recorded with the MacLab method. There was a total of four groups involved in this experiment: the histamine alone, the histamine plus Ebalin, the histamine plus the supercritical extract of Flos Lonicerae, Fructus Forsythiae and Radix Scutellariae, and the histamine plus sub-boiling aqueous extract. The test curves were respectively recorded after the administration of the histamine and the other test drugs. The inhibitory rate and exciting rate were calculated with the following formula: [formula]

## N=C(N)/N=C(\N)N1CCOCC1 [Moroxydine hydrochloride]
Influenza A; 1%, 10 mg/ml
  Inhibitory effect for the virus (CPE): +
Influenza A; 5%, 50 mg/ml
  Inhibitory effect for the virus (CPE): −
Influenza A; 10%, 100 mg/ml
  Inhibitory effect for the virus (CPE): −
Influenza A; 15%, 150 mg/ml
  Inhibitory effect for the virus (CPE): −
Influenza A; 20%, 200 mg/ml
  Inhibitory effect for the virus (CPE): −
ADV3; 1%, 10 mg/ml
  Inhibitory effect for the virus (CPE): +
ADV3; 5%, 50 mg/ml
  Inhibitory effect for the virus (CPE): +
ADV3; 10%, 100 mg/ml
  Inhibitory effect for the virus (CPE): +
ADV3; 15%, 150 mg/ml
  Inhibitory effect for the virus (CPE): +
ADV3; 20%, 200 mg/ml
  Inhibitory effect for the virus (CPE): +
RSV [1]; 1%, 10 mg/ml
  Inhibitory effect for the virus (CPE): +
RSV [1]; 5%, 50 mg/ml
  Inhibitory effect for the virus (CPE): +
RSV [1]; 10%, 100 mg/ml
  Inhibitory effect for the virus (CPE): +
RSV [1]; 15%, 150 mg/ml
  Inhibitory effect for the virus (CPE): +
RSV [1]; 20%, 200 mg/ml
  Inhibitory effect for the virus (CPE): +
HSV-II; 1%, 10 mg/ml
  Inhibitory effect for the virus (CPE): +
HSV-II; 5%, 50 mg/ml
  Inhibitory effect for the virus (CPE): +
HSV-II; 10%, 100 mg/ml
  Inhibitory effect for the virus (CPE): +
HSV-II; 15%, 150 mg/ml
  Inhibitory effect for the virus (CPE): +
HSV-II; 20%, 200 mg/ml
  Inhibitory effect for the virus (CPE): +

## NC(=O)c1ncn([C@@H]2O[C@H](CO)[C@@H](O)[C@H]2O)n1 [Ribavirin]
[2]
  Anti-virus effect of Ribavirin: +
[3]
  Inhibitive rate (100%): 24.68%
[3]; infection control 1.54 ± 0.25
  Lung index (X ± SD): 1.16 ± 0.15
Herpes I virus (HSV-I)
  Anti-virus effect of Ribavirin: +
Influenza virus A3
  Anti-virus effect of Ribavirin: +
RSV [4]
  Anti-virus effect of Ribavirin: +

## CN(C)CCC(c1ccc(Br)cc1)c1ccccn1.O=C(O)/C=C\C(=O)O (stereo not shown) [Ebalin]
[5]; Table 13: histamine 3.3 × 10^−6 g/ml + test drug 1 × 10^−3 g/ml, histamine alone 271 ± 42
  Ileum contraction with histamine plus test drug: 181 ± 32 %
[5]; Table 14: histamine 3.3 × 10^−6 g/ml + 1 × 10^−6 g/ml, histamine alone 235.29 ± 35.30
  Ileum contraction with histamine plus test drug: 133.81 ± 405.5 %
